We go through seven molecules from patent US4405643A, “Treatment of acute pulmonary edema with arginine esters” (Italfarmaco S.p.A., priority 1979, dated 1983).

Counter-ions that a name gives are not always drawn.

A short description of assay [1]: Protection against pulmonary edema (adrenaline-induced acute edema of the lungs). Format: in vivo, male albino rats of Wistar type. Conditions: parenteral, 15 min before adrenaline. The method, then:
The method of A. M. Rothschild and A. Castania (Arch. Pharmacol., 295, 177 (1976)), has been used to develop the acute edema in the lungs and substances of known therapeutic activity have been used for comparison purpose.
For the test, male albino rats of Wistar type of average weight 250-350 grams, have been used for the test. The rats were stabilized for a period of ten days at a temperature of 21°±1° C., under conditions of controlled diet and water "ad libitum". Prior to the test, the animals were divided into groups of ten for the purpose of achieving good randomization. Each dose was tried on three groups of animals. The animals were anesthetized with pentobarbital in a dose of 30 mg/kg at the beginning of the test. After the animals were in complete narcosis, the following substances were administered by the parenteral route:
1. to the animals as controls, physiological saline solution in the amount of 1 ml/kg,
2. to the animals in the test, a solution of the substance being tested in physiological saline solution in the amount of 1 ml/kg in the doses reported hereinbelow in the table.
After a period of 15 minutes, for the purpose of determining the protective activity of the substances, adrenaline was administered in the amount of 16 γ/kg by the endovenous route and in physiological saline solution, for the purpose of causing acute edema.
After five minutes, the animals were killed by removal of the head, the lungs were removed and the weight of the lungs were determined. The results of the test are reported in Table 1 hereinbelow, together with the concentration of the substances and the relative inhibition of edema in percent.

Assay [2] can be described thus: Protection against anaphylactic shock (horse serum). Format: in vivo, male albino guinea pigs. Conditions: parenteral, with horse serum challenge, after 12 h. As for the experimental part:
The anaphylactic shock has been induced according to the method of S. M. Feinberg, M. Pharmacol. Exp. Therapeut., 99, 195 (1950). There have been used male albino guinea pigs of average weight, 350±20 grams previously stabilized for a period of ten days at a temperature of 21°±1° C., under conditions of controlled diet and water "ad libitum". Three days before the beginning of the experiment, the animals are divided in groups of ten for the purpose of achieving good randomization. Each single dose has been tried on three groups of animals.
The sensitization has been carried out by administration of 1 ml/guinea pig through the endovenous route of horse serum, (whole serum, not treated with preservatives) diluted 1:10 in physiological saline solution. After 14 days, the solutions of the substances being tested and the samples of physiological solutions for use with the controls are administered through the parenteral route. Simultaneously, 1 ml/guinea pig of horse serum, undiluted is administered, this substance being used as the agent which prompts the anaphylaxis. The percentage of mortality is determined after 12 hours.

Assay [3] deals with Fibrin Degradation Products. Put plainly: Inhibition of hyperfibrinolysis caused by urokinase (F.D.P., staphylococcal clumping test). Conditions: parenteral, 30 min before urokinase 2500 U.I/rat. Format: in vivo, Wistar rats. As for the experimental part: The induction of hyperfibrinolysis state is caused by administration of urokinase. The determination of the inhibition is carried out by determination of the F.D.P. value, that is Fibrin Degradation Products, according to the procedure of J. Hawiger et al, J. Lab. Clin. Med. 75, 93 (1970), by means of the staphylococcal clumping test (Boehringer Mannheim GmbH test).
There are used Wistar rats of 300 grams ±10 by weight previously stabilized for a period of ten days at a temperature of 21°±1° C., under conditions of controlled diet and water "ad libitum". Twenty-four hours prior to the beginning of the experiment, the animals are divided in groups of ten for the purpose of achieving randomization. Each individual dose is tried on three groups of animals.
At the beginning of the test, zero time, the compounds being tested are administered through the parenteral route. In the case of the control animals, at the same time an equal volume of a physiological saline solution is administered except that some blood is removed by means of a cardiac puncture, for the purpose of determining the basal fibrinolytic activity. After 30 minutes, human urokinase (the composition marketed by Ukidan-Serono) is administered intravenously in the amount of 2500 U.I/rat. After an additional period of ten minutes, blood is removed by means of a cardiac puncture for the final determination of F.D.P., a determination which is expressed in […].

Assay [4] can be described thus: Protection against shock caused by endotoxins (lipopolysaccharide B from S. Enteritidis). Format: in vivo, male rats of Wistar type. To be noted: parenteral, 1 h before endotoxin, after 24 h. From the text: Endotoxin-induced shock has been produced according to the method reported by A. Bertelli and L. Donati, in the publication "The Influence of Some Enzymes and Enzymes Inhibitors in Shock", published in "SHOCK Biochemical,Pharmaceutical and Clinical Aspects"; A. Bertelli and N. Back Editors, Advances in Experimental Medicine and Biology; Volume 9, Plenum Press New York - London 1970, page 215. By way of comparison, there has been used a substance of well known therapeutical activity, specifically aprotinine, the commercial products marketed by Farbenfabriken Bayer, under the name "Trasylol". Male rats of Wistar type of 120 grams by weight ±10 have been used. The rats were previously stabilized for a period of ten days at a temperature of 21°±1° C. under a controlled diet and water "ad libitum". Twenty-four hours prior to the test, the animals were divided in groups of ten for the purpose of achieving randomization. Every single dose has been tried on six groups of animals.
Lipopolysaccharide B from S. Enteritidis (Difco Labs.) was used as the endotoxin. This substance was administered in the dose of 10 mg/kg by the endoperitoneal route, one hour after administration of the substance being administered by the parenteral route or in the form of a physiological solution in equal volume per kilogram to the animals being used as control.
The mortality in percent was determined in the animals being tested as compared with the controls after twenty-four hours.

Consider `CC(=O)Oc1ccccc1C(=O)O` [Aspirin], for which the “% INHIBITION OF EDEMA” value is 32.2% in assay [1] (dose 1 mg/kg); 36.9% in assay [1] (dose 2.5 mg/kg); 48.2% in assay [1] (dose 5 mg/kg); 54.3% in assay [1] (dose 10 mg/kg); 19.6% in assay [1] (dose 20 mg/kg).
Take `CCOC(=O)[C@H](N)CCCNC(=N)N` [D-A.E., DArginine ethyl ester hydrochloride]: the “% MORTALITY” value in assay [2] (dose 10 mg/kg) is 76.7%; in assay [2] (dose 20 mg/kg), 79.4%; in assay [2] (dose 50 mg/kg) it was 81.0%; in assay [4] (dose 5 mg/kg), 72%; in assay [4] (dose 10 mg/kg), 67%; in assay [4] (dose 20 mg/kg), 69.3%. Also, the “% MORTALITY” value in assay [4] (dose 50 mg/kg) is given as 71%. The “% INHIBITION OF EDEMA” value stood at 7% in assay [1] (dose 0.1 mg/kg); 11% in assay [1] (dose 0.25 mg/kg); 3% in assay [1] (dose 0.5 mg/kg); 4.2% in assay [1] (dose 1 mg/kg); 7% in assay [1] (dose 2.5 mg/kg); 5.3% in assay [1] (dose 5 mg/kg). Besides, the results for the “% INHIBITION OF EDEMA” value in assay [1] (dose 10 mg/kg) and in assay [1] (dose 20 mg/kg) were 6% and 2.5%, respectively. The F.D.P. is 3.20 milliliters in assay [3] (dose 5 mg/kg), 3.16 milliliters in assay [3] (dose 10 mg/kg) and 3.19 milliliters in assay [3] (dose 20 mg/kg).
For the molecule `COC(=O)[C@H](N)CCCNC(=N)N` [D-A.M., DArginine methyl ester hydrochloride], the “% MORTALITY” value in assay [2] (dose 10 mg/kg) came out at 78.8%; in assay [2] (dose 20 mg/kg) it was 81.0%; in assay [2] (dose 50 mg/kg) it was 76.3%; in assay [4] (dose 5 mg/kg), 71.2%; in assay [4] (dose 10 mg/kg), 68.5%; in assay [4] (dose 20 mg/kg), 69%. Moreover, in assay [4] (dose 50 mg/kg), the “% MORTALITY” value stood at 73%. Further, the “% INHIBITION OF EDEMA” value in assay [1] (dose 1 mg/kg) is 16.8%; in assay [1] (dose 2.5 mg/kg), 11.7%; in assay [1] (dose 5 mg/kg) it was 15.4%; in assay [1] (dose 10 mg/kg), 4.4%; in assay [1] (dose 20 mg/kg), 6.4%. Also, the F.D.P. in assay [3] (dose 5 mg/kg) is 3.10 milliliters; in assay [3] (dose 10 mg/kg), 3.03 milliliters; in assay [3] (dose 20 mg/kg) it was 3.16 milliliters.
In the case of `CCO` [Ethanol], the “% MORTALITY” value is 76.4% in assay [2] (dose 2 mg/kg); 74% in assay [2] (dose 4 mg/kg); 76.5% in assay [2] (dose 8 mg/kg); 67% in assay [4] (dose 2 mg/kg); 69% in assay [4] (dose 4 mg/kg); 73% in assay [4] (dose 8 mg/kg). Besides, the “% INHIBITION OF EDEMA” value worked out at 7% in assay [1] (dose 0.08 mg/kg); 12% in assay [1] (dose 0.8 mg/kg); 15% in assay [1] (dose 2 mg/kg); 14.7% in assay [1] (dose 4 mg/kg); 16% in assay [1] (dose 8 mg/kg); 15.9% in assay [1] (dose 16 mg/kg). Besides, the F.D.P. in assay [3] (dose 2 mg/kg) turned out to be 3.06 milliliters; in assay [3] (dose 4 mg/kg) it was 2.95 milliliters; in assay [3] (dose 8 mg/kg) it was 3.11 milliliters.
Take `CCOC(=O)[C@@H](N)CCCNC(=N)N` [L-A.E., LArginine ethyl ester hydrochloride]: the “% MORTALITY” value in assay [2] (dose 10 mg/kg) is on record as 35%; in assay [2] (dose 20 mg/kg), 23%; in assay [2] (dose 50 mg/kg) it was 9.5%; in assay [4] (dose 5 mg/kg), 51.3%; in assay [4] (dose 10 mg/kg), 48.2%; in assay [4] (dose 20 mg/kg), 37.5%. Besides, the “% MORTALITY” value in assay [4] (dose 50 mg/kg) stood at 25.0%. The “% INHIBITION OF EDEMA” value in assay [1] (dose 0.1 mg/kg) was found to be 3.4%; in assay [1] (dose 0.25 mg/kg) it was 32.2%; in assay [1] (dose 0.5 mg/kg), 33.3%; in assay [1] (dose 1 mg/kg), 55.7%; in assay [1] (dose 2.5 mg/kg) it was 47.9%; in assay [1] (dose 5 mg/kg), 41.0%. For the same molecule, the “% INHIBITION OF EDEMA” value in assay [1] (dose 10 mg/kg) is listed as 38.9%; in assay [1] (dose 20 mg/kg) it was 39.7%. In addition, the figures for the F.D.P. in assay [3] (dose 5 mg/kg), in assay [3] (dose 10 mg/kg) and in assay [3] (dose 20 mg/kg) were 0.50 milliliters, 0.33 milliliters and 0.27 milliliters, respectively.
On to `COC(=O)[C@@H](N)CCCNC(=N)N` [L-A.M., LArginine methyl ester hydrochloride], for which the “% MORTALITY” value is reported as 40.5% in assay [2] (dose 10 mg/kg); 27% in assay [2] (dose 20 mg/kg); 12.5% in assay [2] (dose 50 mg/kg); 55.0% in assay [4] (dose 5 mg/kg); 50.0% in assay [4] (dose 10 mg/kg); 40.0% in assay [4] (dose 20 mg/kg). In assay [4] (dose 50 mg/kg), the “% MORTALITY” value was 28.0%. Besides, the “% INHIBITION OF EDEMA” value in assay [1] (dose 1 mg/kg) stood at 21.2%; in assay [1] (dose 2.5 mg/kg) it was 27.4%; in assay [1] (dose 5 mg/kg), 29.0%; in assay [1] (dose 10 mg/kg), 55.7%; in assay [1] (dose 20 mg/kg) it was 15.7%. The F.D.P. in assay [3] (dose 5 mg/kg) was 0.48 milliliters; in assay [3] (dose 10 mg/kg), 0.30 milliliters; in assay [3] (dose 20 mg/kg), 0.25 milliliters.
Consider `NC[C@H]1CC[C@H](C(=O)O)CC1` [Tranexamic Acid, trans4-(aminomethyl)cyclohexancarboxylic acid], for which the F.D.P. in assay [3] (dose 5 mg/kg) is on record as 0.58 milliliters; in assay [3] (dose 10 mg/kg), 0.39 milliliters; in assay [3] (dose 20 mg/kg), 0.33 milliliters.
